Measured values reported in US9597369B2, “Inhibitors of atypical protein kinase C and their use in treating hedgehog pathway-dependent cancers” (The Board of Trustees of the Leland Stanford Junior …, priority 2011, dated 2017).
Peptide text beside a SMILES is read from it. * marks the point of attachment. Myristoyl = CCCCCCCCCCCCCC(=O)*

Columns and labels:
Hh signaling = Hh signaling (gli1 mRNA, Gli target gene induction) in BCC cells; assay type: cell-based, mouse
Method: (§1) Subconfluent ASZ001 cells were serum-starved and inhibitors added for 48 hrs prior to MTT assay and 24 hrs prior to visualize cilia and assay Gli target gene induction. Stability assays performed with ASZ001 preincubated with PSI for one hour before 20 ug/ml cyclohexamide addition at various time points.
(§2) Aligned 36 bp raw reads with Bowtie using the NCBI37/mm9 reference genome. Differential expression analysis was performed on the 3′ exon with the Cufflinks suite using mouse RefSeq gene predictions as a reference transcriptome. Annotated coding transcripts were filtered for significant expression by a RPKM of 25 in at least one sample set. […] Transcripts were validated using Brilliant II SYBR Green qRT-PCR Master Mix Kit (Agilent Technologies) with primers listed in the following table. Two-tail p-value between our gene sets and other gene sets calculated using Fisher's Exact Test.

ASZ001 cells [1] = assay type: cell-based, mouse; settings: 48 h
Method: (§3) Primary mouse dermal cells were isolated as previously described (Bershteyn, M., Atwood, S. X., Woo, W.-M., Li, M. & Oro, A. E. MIM and cortactin antagonism regulates ciliogenesis and hedgehog signaling. Dev. Cell 19, 270-283 (2010)). Dermal cells were grown in Amniomax media containing supplement and antibiotics (Invitrogen). ASZ001 cells were grown in 154CF media containing 2% chelated FBS, HKGS supplement, and antibiotics (Invitrogen). Keratinocytes (HPA Culture Collections) were grown in CnT-07 media containing supplement and 0.07 mM CaCl2 (CelINTec). Cells were sterum-starved between 24-48 hrs to induce ciliogenesis. MTT cell proliferation assay was performed using manufacturer's protocol from Invitrogen.
as §1

allografted BCC tumors = settings: mouse, in vivo
From the text: All mouse studies were approved by and conformed to the policies and regulations of the Institutional Animal Care and Use Committees at Stanford University and the Children's Hospital Oakland Research Institute. Ptch1+/−, K14CreER2, p53flox/flox mice were used to develop BCC tumors. Tumors were allografted as previously described (Wang, G. Y. et al. Establishment of Murine Basal Cell Carcinoma Allografts: A Potential Model for Preclinical Drug Testing and for Molecular Analysis. Journal of Investigative Dermatology (2011).doi:10.1038/jid.2011.204). Nine tumors from three mice were treated topically twice daily with 0.8 mg/kg PSI dissolved in DMSO for at least 32 days. Ten tumors from three mice were treated with DMSO twice daily as a control. Mice were euthanized and tumors harvested depending on tumor size that exceeded our animal care guidelines. We measured the change in tumor size with calipers every three to four days. Pairwise comparisons between DMSO and PSI treatment were done using a two-sided unpaired t test with GraphPad Prism software.

non-tumorigenic cells = assay: Proliferation of non-tumorigenic cells; assay type: cell-based, mouse and human; settings: mouse dermal fibroblasts, mouse keratinocytes, human retinal pigment epithelial cells, FIG. 7
Method: as §3

ASZ001 cells [2] = assay: 3' end RNA sequencing of inhibitor-treated BCC cells; assay type: cell-based, mouse; settings: inhibitor 24 hrs, FIG. 3a
Method: as §2

With `CNC1CCC(N(Cc2cccc(-c3ccncc3)c2)C(=O)c2sc3ccccc3c2Cl)CC1` (centres unmarked) [SAG] the gli1 transcription (Hh signaling; BCC cells, agonist alone, FIG. 3d) was “activates gli1 transcription”.
In the case of `CC1=C2C[C@H]3[C@@H](CC=C4C[C@@H](O)CC[C@@]43C)[C@@H]2CC[C@]12O[C@@H]1C[C@H](C)CN[C@H]1[C@H]2C` [cyclopamine], the “gli1 and apkciota transcript” value (Hh signaling; BCC cells, FIG. 2g) is reported as “specifically suppressed”.
`CCCCCCCCCCCCCC(=O)N[C@@H](CO)C(=O)N[C@H](C(=O)N[C@@H](Cc1ccc(O)cc1)C(=O)N[C@@H](CCCNC(=N)N)C(=O)N[C@@H](CCCNC(=N)N)C(=O)NCC(=O)N[C@@H](C)C(=O)N[C@@H](CCCNC(=N)N)C(=O)N[C@@H](CCCNC(=N)N)C(=O)N[C@@H](Cc1c[nH]c2ccccc12)C(=O)N[C@@H](CCCNC(=N)N)C(=O)N[C@@H](CCCCN)C(=O)N[C@@H](CC(C)C)C(=O)N[C@@H](Cc1ccc(O)cc1)C(=O)O)[C@@H](C)CC` [PSI] (Myristoyl-SIYRRGARRWRKLY-OH) was tested, and the IC50 (ASZ001 cells [1]) was 5 µM, the “adverse effects on normal skin” value (allografted BCC tumors) was “no adverse effects to PSI treatment except a mild hair phenotype” and the “proliferation in non-tumorigenic cells” value (non-tumorigenic cells) was “unaffected”.
`Cc1nn(-c2ccccc2)c(C)c1/C=N/N1CCN(Cc2ccccc2)CC1` [Sant-1] was tested, and the cdc42 transcript (Hh signaling; mouse BCC cells, FIG. 2i) was “repressed”, the pard6a transcript (Hh signaling; mouse BCC cells, FIG. 2i) was “elevated” and the “transcripts changed two-fold or greater compared to control” value (ASZ001 cells [2]) was 5700 transcripts.
